# Species: Rattus norvegicus
# Assay: Open TG-GATES - Regimen: Daily Repeat
# Type: toxicity, organism-based, Sprague-Dawley
# Design: regimen Daily Repeat, gender Male, age 6 weeks
# Settings: in vivo, po, route gavage; for APTT / Bas / Eos / Fbg / Hb / Ht / Lym / MCH / MCHC / MCV / Mono / Neu / PT / Plat / RBC / Ret / WBC: tissue Blood; for KIDNEY_L / KIDNEY_R / KIDNEY_TOTAL: tissue Kidney; for LIVER: tissue Liver; for A/G / ALP / ALT / AST / BUN / CRE / Ca / Cl / DBIL / GLC / IP / K / LDH / Na / PL / RALB / TBIL / TC / TG / TP / gamma-GTP: tissue Plasma
# [1] = 1 mg/kg, […], dose level Middle, time 14 day
# [2] = 1 mg/kg, […], dose level Middle, time 28 day
# [3] = 1 mg/kg, […], dose level Middle, time 7 day
# [4] = 3 mg/kg, 72 h, dose level High, time 3 day
# [5] = 3 mg/kg, […], dose level High, time 7 day
# [6] = 3 mg/kg, […], dose level High, time 14 day
smiles,measurement,setting,value
CN1C(C(=O)Nc2ccccn2)=C(O)c2sc(Cl)cc2S1(=O)=O [LORNOXICAM],TERMINAL_BW,[1],307.1 g
same,TERMINAL_BW,[2],392.3 g
same,APTT,[3],18.4 s
same,Bas,[3],0.8%
same,Eos,[3],1%
same,Fbg,[3],239.8 mg/dL
same,Hb,[3],12.9 g/dL
same,Ht,[3],38.3%
same,Lym,[3],71.6%
same,MCH,[3],20.9 pg
same,MCHC,[3],33.6%
same,MCV,[3],62.1 fL
same,Mono,[3],2.8%
same,Neu,[3],23.6%
same,PT,[3],11.5 s
same,Plat,[3],139.1 x10_4/uL
same,RBC,[3],617 x10_4/ul
same,Ret,[3],5.7%
same,WBC,[3],135.6 x10_2/uL
same,APTT,[1],20.3 s
same,Bas,[1],0.8%
same,Eos,[1],0.8%
same,Fbg,[1],291.6 mg/dL
same,Hb,[1],12.9 g/dL
same,Ht,[1],38.8%
same,Lym,[1],62.2%
same,MCH,[1],19.8 pg
same,MCHC,[1],33%
same,MCV,[1],59.9 fL
same,Mono,[1],3.8%
same,Neu,[1],31.8%
same,PT,[1],11.4 s
same,Plat,[1],151.7 x10_4/uL
same,RBC,[1],648 x10_4/ul
same,Ret,[1],5.7%
same,WBC,[1],137.4 x10_2/uL
same,APTT,[2],18.9 s
same,Bas,[2],0.8%
same,Eos,[2],1%
same,Fbg,[2],247.2 mg/dL
same,Hb,[2],15.2 g/dL
same,Ht,[2],44.2%
same,Lym,[2],71%
same,MCH,[2],19.6 pg
same,MCHC,[2],34.2%
same,MCV,[2],57.1 fL
same,Mono,[2],2.5%
same,Neu,[2],24%
same,PT,[2],11.7 s
same,Plat,[2],115.1 x10_4/uL
same,RBC,[2],775.8 x10_4/ul
same,Ret,[2],2.8%
same,WBC,[2],161.4 x10_2/uL
same,KIDNEY_L,[3],1.3 g
same,KIDNEY_R,[3],1.3 g
same,KIDNEY_TOTAL,[3],2.6 g
same,KIDNEY_L,[1],1.5 g
same,KIDNEY_R,[1],1.4 g
same,KIDNEY_TOTAL,[1],2.9 g
same,KIDNEY_L,[2],1.5 g
same,KIDNEY_R,[2],1.5 g
same,KIDNEY_TOTAL,[2],3.1 g
same,LIVER,[3],12.7 g
same,LIVER,[1],12.3 g
same,LIVER,[2],15.1 g
same,A/G,[3],1.4
same,ALP,[3],831.8 IU/L
same,ALT,[3],41.6 IU/L
same,AST,[3],75.6 IU/L
same,BUN,[3],13.4 mg/dL
same,CRE,[3],0.4 mg/dL
same,Ca,[3],10.6 mg/dL
same,Cl,[3],104 meq/L
same,DBIL,[3],0.086 mg/dL
same,GLC,[3],194 mg/dL
same,IP,[3],7.4 mg/dL
same,K,[3],4.1 meq/L
same,LDH,[3],210.2 IU/L
same,Na,[3],141.2 meq/L
same,PL,[3],136 mg/dL
same,RALB,[3],3.2 g/dL
same,TBIL,[3],0.1 mg/dL
same,TC,[3],70.6 mg/dL
same,TG,[3],93 mg/dL
same,TP,[3],5.5 g/dL
same,gamma-GTP,[3],1.2 IU/L
same,A/G,[1],1.2
same,ALP,[1],815.8 IU/L
same,ALT,[1],31.6 IU/L
same,AST,[1],79 IU/L
same,BUN,[1],21.8 mg/dL
same,CRE,[1],0.5 mg/dL
same,Ca,[1],10.3 mg/dL
same,Cl,[1],104.6 meq/L
same,DBIL,[1],0.086 mg/dL
same,GLC,[1],189.6 mg/dL
same,IP,[1],7.1 mg/dL
same,K,[1],4 meq/L
same,LDH,[1],225 IU/L
same,Na,[1],141.8 meq/L
same,PL,[1],131.2 mg/dL
same,RALB,[1],2.9 g/dL
same,TBIL,[1],0.1 mg/dL
same,TC,[1],65.6 mg/dL
same,TG,[1],106.2 mg/dL
same,TP,[1],5.3 g/dL
same,gamma-GTP,[1],2 IU/L
same,A/G,[2],1.3
same,ALP,[2],589.2 IU/L
same,ALT,[2],31.8 IU/L
same,AST,[2],76.2 IU/L
same,BUN,[2],19 mg/dL
same,CRE,[2],0.5 mg/dL
same,Ca,[2],10.2 mg/dL
same,Cl,[2],104 meq/L
same,DBIL,[2],0.0925 mg/dL
same,GLC,[2],206.5 mg/dL
same,IP,[2],6.3 mg/dL
same,K,[2],3.8 meq/L
same,LDH,[2],194.2 IU/L
same,Na,[2],141.8 meq/L
same,PL,[2],142.8 mg/dL
same,RALB,[2],3.3 g/dL
same,TBIL,[2],0.2 mg/dL
same,TC,[2],69.8 mg/dL
same,TG,[2],150.2 mg/dL
same,TP,[2],5.8 g/dL
same,gamma-GTP,[2],1.5 IU/L
same,TERMINAL_BW,[4],235 g
same,APTT,[4],18.3 s
same,Bas,[4],0.8%
same,Eos,[4],0.6%
same,Fbg,[4],354.8 mg/dL
same,Hb,[4],11.6 g/dL
same,Ht,[4],35.4%
same,Lym,[4],56.8%
same,MCH,[4],20.5 pg
same,MCHC,[4],32.9%
same,MCV,[4],62.4 fL
same,Mono,[4],6%
same,Neu,[4],29.2%
same,PT,[4],11.4 s
same,Plat,[4],121.4 x10_4/uL
same,RBC,[4],568.2 x10_4/ul
same,Ret,[4],6.5%
same,WBC,[4],164.3 x10_2/uL
same,KIDNEY_L,[4],1.2 g
same,KIDNEY_R,[4],1.1 g
same,KIDNEY_TOTAL,[4],2.3 g
same,LIVER,[4],12 g
same,A/G,[4],0.9
same,ALP,[4],648.6 IU/L
same,ALT,[4],30 IU/L
same,AST,[4],57.4 IU/L
same,BUN,[4],12.4 mg/dL
same,CRE,[4],0.4 mg/dL
same,Ca,[4],10.5 mg/dL
same,Cl,[4],103.8 meq/L
same,DBIL,[4],0.07 mg/dL
same,GLC,[4],194 mg/dL
same,IP,[4],8 mg/dL
same,K,[4],4.4 meq/L
same,LDH,[4],163 IU/L
same,Na,[4],140.8 meq/L
same,PL,[4],142.8 mg/dL
same,RALB,[4],2.4 g/dL
same,TBIL,[4],0.1 mg/dL
same,TC,[4],70.8 mg/dL
same,TG,[4],131.6 mg/dL
same,TP,[4],4.9 g/dL
same,gamma-GTP,[4],1.4 IU/L
same,TERMINAL_BW,[5],246.6 g
same,APTT,[5],18 s
same,Bas,[5],1%
same,Eos,[5],1%
same,Fbg,[5],362 mg/dL
same,Hb,[5],10.9 g/dL
same,Ht,[5],32.8%
same,Lym,[5],56%
same,MCH,[5],20.2 pg
same,MCHC,[5],33.2%
same,MCV,[5],61 fL
same,Mono,[5],4.7%
same,Neu,[5],36.3%
same,PT,[5],11.1 s
same,Plat,[5],232.1 x10_4/uL
same,RBC,[5],537.7 x10_4/ul
same,Ret,[5],6%
same,WBC,[5],243.6 x10_2/uL
same,KIDNEY_L,[5],1.2 g
same,KIDNEY_R,[5],1.2 g
same,KIDNEY_TOTAL,[5],2.3 g
same,LIVER,[5],11.3 g
same,A/G,[5],0.8
same,ALP,[5],606 IU/L
same,ALT,[5],23.7 IU/L
same,AST,[5],58.3 IU/L
same,BUN,[5],9 mg/dL
same,CRE,[5],0.4 mg/dL
same,Ca,[5],10.3 mg/dL
same,Cl,[5],105.3 meq/L
same,DBIL,[5],0.0567 mg/dL
same,GLC,[5],176 mg/dL
same,IP,[5],7.7 mg/dL
same,K,[5],4.3 meq/L
same,LDH,[5],206.7 IU/L
same,Na,[5],141.3 meq/L
same,PL,[5],147 mg/dL
same,RALB,[5],2.4 g/dL
same,TBIL,[5],0.1 mg/dL
same,TC,[5],73.3 mg/dL
same,TG,[5],114.7 mg/dL
same,TP,[5],5.3 g/dL
same,gamma-GTP,[5],2 IU/L
same,GLC,[6],178 mg/dL
same,gamma-GTP,[6],1 IU/L

# Source: ChEMBL document CHEMBL3885861, “Open TG-GATES”
